Measured values from patent US12098145B2 (Libra Therapeutics, Inc., priority 2022, dated 2024).
Like-named read-outs stand apart in the source and are kept apart here.

Key:
[1] = biological target: T1, TRPML1 (Homo sapiens, UniProt Q9GZU1); experiment: Cellular TRPML1 assay (FLIPR, GCaMP6f calcium read-out); assay type: cell-based
T1 construct: expressed in transfected cells; host or cells: HEK T-REx cells stably expressing GCaMP6f and TRPML1
Summary of the method: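 Read-out is GCaMP6f fluorescence over 300 s after compound addition in Ca2+-free Tyrode's buffer, final DMSO 0.5%, on FLIPR Tetra. Cells are HEK T-REx stably co-expressing the indicator and TRPML1, plated 24 h earlier in Optimem + 0.5% FBS and pre-incubated ~10 min at room temperature.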

[2] = system: TFEB; experiment: TFEB translocation assay (TFEB reporter in U2OS cells, imaging); assay type: cell-based; conditions: Homo sapiens; U2OS cell line with TFEB reporter, 2 hours incubation, nucleus to cytoplasm ratio, normalized to Torin-1; read-out: TFEB Translocation pEC50 (converted)
Method: Example B: TFEB Translocation Assay
Reporter TFEB: the reporter is fused to a sequence of monomeric red fluorescent protein.
The reporter TFEB have been stably expressed in U2OS cell line and used as read-out.
Experiments were performed in 384 MTP well format. Cells were seeded in 384-w at a density of 4000 cells/well in 20 μl/well complete growth medium without antibiotics. Twenty-four hours later, cells were treated with compounds and incubated for further 2 hours. Then the cells were imaged and assayed for the response to various compounds using the reporter for TFEB expressed in the cells as readout.
The experiments were performed in a 384-well format according to the following procedure: • 24 h after seeding, cell culture medium was carefully removed and replaced with 20 μl of Opti-MEM (30′ incubation at 37° C. before compound addition) • Then, cells were incubated with compounds diluted in Opti-MEM+0.015% Tween 80 at the desired concentration, with the reference molecule (agonist) Torin-1 at a top concentration of 1 μM (max signal), and with the other reference molecule (agonist) MLSA-5 at top concentration of 20 μM for 2 hours at 37° C. and 5% CO2. The final percentage of DMSO was 0.5% in all the conditions. • Staining of the nuclei was obtained by incubating the cells with 24 μM/well of Hoechst 3342 in standard Tyrode's buffer for 15 min at RT • Then the cells were fixed with PFA 4% for 30 min at RT • After three washes with standard Tyrode's buffer, samples were acquired by recording two fluorescence emission channels (DS-red and blue) at 20× magnification and with at least 3 fields of view per well in an Operetta CLS microscope (PerkinElmer). • Image analysis was performed by using Harmony software (PerkinElmer). The image analysis involved the following steps: flat-field illumination correction, nuclei segmentation, cytoplasm segmentation and calculation of intensity fluorescence in the cytosol and nuclei compartments. Measurements of signal intensity ratio (nucleus to cytoplasm) was used to obtain information on the effects of compounds on the TFEB translocation. • Data from image analysis measurements were finally loaded and analyzed for normalization and fitting procedures in Genedata Screener© software. Data Analysis
Feature: Mean translocation ratio (mean/well)
Data normalization: Stimulator—Neutral control
The GeneData Screener method we have used, normalizes the median of the Stimulator control wells (Torin-1) to 100% and the median of the Neutral control wells (DMSO) to 0% Activity[%]=100*(x−<Min>)/(<“Max”>−<Min>)

[3] = HEKT-REx/GCaMP6f/TRPML1 cells, FLIPR TETRA, kinetic response over 300 seconds, read-out: TRPML1 FLIPR pEC50 (converted)

T1 sequence (Q9GZU1 whole entry): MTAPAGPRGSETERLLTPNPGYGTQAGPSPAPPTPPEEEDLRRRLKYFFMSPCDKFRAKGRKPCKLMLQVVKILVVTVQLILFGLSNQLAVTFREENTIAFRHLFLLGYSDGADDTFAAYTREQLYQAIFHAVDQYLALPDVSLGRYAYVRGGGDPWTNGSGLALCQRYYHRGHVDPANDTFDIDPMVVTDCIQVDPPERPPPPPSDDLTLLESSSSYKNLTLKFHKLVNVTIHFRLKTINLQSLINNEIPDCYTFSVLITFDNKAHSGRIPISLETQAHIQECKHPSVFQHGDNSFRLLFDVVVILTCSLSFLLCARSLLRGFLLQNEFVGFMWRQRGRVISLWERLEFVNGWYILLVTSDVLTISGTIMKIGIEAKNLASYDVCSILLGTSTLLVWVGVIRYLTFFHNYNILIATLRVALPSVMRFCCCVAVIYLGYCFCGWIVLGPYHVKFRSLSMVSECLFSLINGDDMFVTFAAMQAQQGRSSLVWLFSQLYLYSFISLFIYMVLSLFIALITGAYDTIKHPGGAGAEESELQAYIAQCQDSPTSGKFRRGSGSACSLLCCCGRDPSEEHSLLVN

Structure (SMILES) | EC50 [1, 3] [µM] | EC50 [2] [µM] | EC50 [1] [µM]
O=C(Nc1ccc(O[C@@H]2C[C@@H]3C[C@@H]3C2)c(F)c1)c1nc(N2CCCC2)oc1CC(F)(F)F [Example 74, N-(4-{cis-bicyclo[3.1.0]hexan-3-yloxy}-3-fluorophenyl)-2-(pyrrolidin-1-yl)-5-(2,2,2-trifluoroethyl)oxazole-4-carboxamide] | 0.01 to 1 | 0.01 to 1 | –
O=C(Nc1ccc(O[C@@H]2C[C@@H]3C[C@@H]3C2)c(F)c1)c1nc(N2CCC3(CC3)C2)oc1CC(F)(F)F [Example 75, 2-{5-azaspiro[2.4]heptan-5-yl}-N-(4-{cis-bicyclo[3.1.0]hexan-3-yloxy}-3-fluorophenyl)-5-(2,2,2-trifluoroethyl)oxazole-4-carboxamide] | 0.01 to 1 | 0.01 to 1 | –
O=C(Nc1ccc(OC2CCCCC2(F)F)c(F)c1)c1nc(N2CCCC2)oc1CC(F)(F)F (stereo not drawn) [Example 76, N-{4-[(2,2-difluorocyclohexyl)oxy]-3-fluorophenyl}-2-(pyrrolidin-1-yl)-5-(2,2,2-trifluoroethyl)oxazole-4-carboxamide] | 0.01 to 1 | 0.01 to 1 | –
O=C(Nc1ccc(N2CCC(F)(F)CC2)c(F)c1)c1nc(N2CC3(C2)CC(F)(F)C3)oc1CC(F)(F)F [Example 77, 2-{6,6-difluoro-2-azaspiro[3.3]heptan-2-yl}-N-[4-(4,4-difluoropiperidin-1-yl)-3-fluorophenyl]-5-(2,2,2-trifluoroethyl)oxazole-4-carboxamide] | 1 to 10 | 1 to 10 | –
O=C(Nc1ccc(N2CCCCC2)c(C(F)(F)F)c1)c1nc(N2CC3(C2)CC(F)(F)C3)oc1CC(F)(F)F [Example 78, 2-{6,6-difluoro-2-azaspiro[3.3]heptan-2-yl}-N-[4-(piperidin-1-yl)-3-(trifluoromethyl)phenyl]-5-(2,2,2-trifluoroethyl)oxazole-4-carboxamide] | 1 to 10 | 1 to 10 | –
CN(c1ccc(NC(=O)c2nc(N3CCCC3)oc2CC(F)(F)F)cc1F)C1CCCC1(F)F (stereo not drawn) [Example 82, N-{4-[(2,2-difluorocyclopentyl)(methyl)amino]-3-fluorophenyl}-2-(pyrrolidin-1-yl)-5-(2,2,2-trifluoroethyl)oxazole-4-carboxamide] | 1 to 10 | 0.01 to 1 | –
O=C(Nc1ccc(N2C3CCCC2C3)c(F)c1)c1nc(N2CCCC2)oc1CC(F)(F)F [Example 83, N-(4-{6-azabicyclo[3.1.1]heptan-6-yl}-3-fluorophenyl)-2-(pyrrolidin-1-yl)-5-(2,2,2-trifluoroethyl)oxazole-4-carboxamide] | – | 0.01 to 1 | 0.01 to 1
O=C(Nc1ccc(N2CCCCC2)c(O)c1)c1nc(N2CCCC2)oc1CC(F)(F)F [Example 84, N-(3-hydroxy-4-(piperidin-1-yl)phenyl)-2-(pyrrolidin-1-yl)-5-(2,2,2-trifluoroethyl)oxazole-4-carboxamide] | 1 to 10 | 10 to 100 | –
Cc1oc(N2CCC3(COC3)C2)nc1C(=O)Nc1ccc(N2CCCCC2)c(F)c1 [Example 90, N-(3-fluoro-4-(piperidin-1-yl)phenyl)-5-methyl-2-(2-oxa-6-azaspiro[3.4]octan-6-yl)oxazole-4-carboxamide] | 1 to 10 | 1 to 10 | –
Cc1oc(N2CCC3(CC3)C2)nc1C(=O)Nc1ccc(N2CCCCC2)c(F)c1 [Example 91, N-(3-fluoro-4-(piperidin-1-yl)phenyl)-5-methyl-2-(5-azaspiro[2.4]heptan-5-yl)oxazole-4-carboxamide] | 1 to 10 | 1 to 10 | –
Cc1oc(N2CCC(CO)C2)nc1C(=O)Nc1ccc(N2CCCCC2)c(F)c1 (stereo not drawn) [Example 96, N-(3-fluoro-4-(piperidin-1-yl)phenyl)-2-(3-(hydroxymethyl)pyrrolidin-1-yl)-5-methyloxazole-4-carboxamide] | 10 to 100 | 10 to 100 | –
CCOCc1oc(N2CCCC2)nc1C(=O)Nc1ccc(N2CCCCC2)c(F)c1 [Example 100, 5-(ethoxymethyl)-N-[3-fluoro-4-(piperidin-1-yl)phenyl]-2-(pyrrolidin-1-yl)oxazole-4-carboxamide] | 1 to 10 | 1 to 10 | –
CC(C)OCc1oc(N2CCCC2)nc1C(=O)Nc1ccc(N2CCCCC2)c(F)c1 [Example 108, N-(3-fluoro-4-(piperidin-1-yl)phenyl)-5-(isopropoxymethyl)-2-(pyrrolidin-1-yl)oxazole-4-carboxamide] | 1 to 10 | 0.01 to 1 | –
CC(C)Cc1oc(N2CCCC2)nc1C(=O)Nc1ccc(OC2CCCC2(F)F)c(F)c1 (stereo not drawn) [Example 111, N-(4-((2,2-difluorocyclopentyl)oxy)-3-fluorophenyl)-5-isobutyl-2-(pyrrolidin-1-yl)oxazole-4-carboxamide] | 1 to 10 | 0.01 to 1 | –
Cc1oc(N2CCCC2)nc1C(=O)Nc1ccc(N2CCCCC2)c(F)c1 [Example 112, N-(3-fluoro-4-(piperidin-1-yl)phenyl)-5-methyl-2-(pyrrolidin-1-yl)oxazole-4-carboxamide] | 1 to 10 | 1 to 10 | –
Cc1oc(N2CCOCC2)nc1C(=O)Nc1ccc(N2CCCCC2)c(F)c1 [Example 116, N-(3-fluoro-4-(piperidin-1-yl)phenyl)-5-methyl-2-morpholinooxazole-4-carboxamide] | 10 to 100 | 10 to 100 | –
Cc1oc(-n2cccn2)nc1C(=O)Nc1ccc(N2CCCCC2)c(F)c1 [Example 118, N-(3-fluoro-4-(piperidin-1-yl)phenyl)-5-methyl-2-(1H-pyrazol-1-yl)oxazole-4-carboxamide] | 10 to 100 | 1 to 10 | –
Cc1oc(N2CCCC2)nc1C(=O)Nc1ccc(OC2CCCC2)c(F)c1 [Example 120, N-(4-(cyclopentyloxy)-3-fluorophenyl)-5-methyl-2-(pyrrolidin-1-yl)oxazole-4-carboxamide] | 1 to 10 | 1 to 10 | –
COCC1(C)CN(c2nc(C(=O)Nc3cc(C)c(O[C@@H]4C[C@@H]5C[C@@H]5C4)c(F)c3)c(CC(F)(F)F)o2)C1 [Example 124, N-(4-(cis-bicyclo[3.1.0]hexan-3-yloxy)-3-fluoro-5-methylphenyl)-2-(3-(methoxymethyl)-3-methylazetidin-1-yl)-5-(2,2,2-trifluoroethyl)oxazole-4-carboxamide] | 0.01 to 1 | 0.01 to 1 | –
CCC1(COC)CN(c2nc(C(=O)Nc3cc(C)c(O[C@@H]4C[C@@H]5C[C@@H]5C4)c(F)c3)c(CC(F)(F)F)o2)C1 [Example 125, N-(4-(cis-bicyclo[3.1.0]hexan-3-yloxy)-3-fluoro-5-methylphenyl)-2-(3-(methoxymethyl)-3-ethylazetidin-1-yl)-5-(2,2,2-trifluoroethyl)oxazole-4-carboxamide] | 0.01 to 1 | 0.01 to 1 | –
CCC1(CO)CN(c2nc(C(=O)Nc3cc(F)c(O[C@@H]4C[C@@H]5C[C@@H]5C4)c(Cl)c3)c(CC(F)(F)F)o2)C1 [Example 126, N-(4-(cis-bicyclo[3.1.0]hexan-3-yloxy)-3-chloro-5-fluorophenyl)-2-(3-ethyl-3-(hydroxymethyl)azetidin-1-yl)-5-(2,2,2-trifluoroethyl)oxazole-4-carboxamide] | 0.01 to 1 | 0.01 to 1 | –
CCC1(CC)CN(c2nc(C(=O)Nc3cc(F)c(O[C@@H]4C[C@@H]5C[C@@H]5C4)c(Cl)c3)c(CC(F)(F)F)o2)C1 [Example 127, N-(4-(cis-bicyclo[3.1.0]hexan-3-yloxy)-3-chloro-5-fluorophenyl)-2-(3,3-diethylazetidin-1-yl)-5-(2,2,2-trifluoroethyl)oxazole-4-carboxamide] | 0.01 to 1 | 0.01 to 1 | –
Cc1cc(NC(=O)c2nc(N3CC(C)(CO)C3)oc2CC(F)(F)F)cc(F)c1O[C@@H]1C[C@@H]2C[C@@H]2C1 [Example 128] | 0.01 to 1 | 0.01 to 1 | –
Cc1cc(NC(=O)c2nc(N3CC(C)(CO)C3)oc2CC(F)(F)F)cc(F)c1OC1CC2CC(C2)C1 (stereo not drawn) [Example 129, N-(4-(bicyclo[3.1.1]heptan-3-yloxy)-3-fluoro-5-methylphenyl)-2-(3-(hydroxymethyl)-3-methylazetidin-1-yl)-5-(2,2,2-trifluoroethyl)oxazole-4-carboxamide] | 0.01 to 1 | 0.01 to 1 | –
